Source: patent US20060183168A1, “Method for optimizing therapeutic efficacy of nemorubicin” (priority 2002, published 2006)

What was measured:
CYP3A4 = molecular target: T1, CYP3A4 (Homo sapiens, UniProt P08684); assay: Metabolic potential of microsomes from cells expressing single human CYP 450 isoenzymes; type: in vitro ADME; conditions: 50 pmol CYP/ml, nemorubicin 20 μM, NADPH 0.5 mM, 37° C., 20 min; CYP3A4, CYP3A5, CYP1A2, CYP2E1, CYP2D61, CYP2C91, CYP2C8
T1 construct: expressed in transfected cells
Procedure: Microsomes were obtained from cell cultures overexpressing CYP3A4, CYP3A5, CYP1A2, CYP2E1, CYP2D61, CYP2C91 and CYP2C8. Microsomes (50 pmol CYP/ml) were incubated with nemomubicin (20 μM) and NADPH (0.5 mM) in 0.3M Tris (pH 7.4) at 37° C. for 20 min. Nemorubicin metabolism was quantified by HPLC method.
(§1) High-performance liqid chromatographic (HPLC) system consisted of a Waters Model 510 isocratic pump equipped with autosampler. Detection was performed by a Perkin Elmer fluorescence spectrofotometer LS-5 set at 479 and 552 nm excitation and emission wavelength, respectively. Detector was connected to a Shimadzu C-R3A integrator. The cromatographic separation was performed on a Waters Simmetry C8 reverse phase column. The mobile phase was 10 mM KH2P4/Methanol/CH3CN (45:30:25). The flow rate was 1.5 ml/min. Standard curves of fluorescence versus drug concentration for nemorubicin and metabolites were used to calculate drug concentration in the samples.

CYP3A4/5 = assay: Antibody studies: inhibition of nemorubicin metabolism by human liver microsomes; type: in vitro ADME; conditions: nemorubicin 20 μM, NADPH 0.5 mM, 10 min at 37° C.
Procedure: Human liver microsomes were preincubated at 25° C. for 5 min. with and without a monoclonal antibody anti-CYP3A4/5 (MAB-3A4 Genetest) in Tris 0.3M (pH 7.4) before adding nemorubicin (20 μM and NADPH (0.5 mM). After 10 min at 37° C., the amount of nemorubicin metabolites was evaluated by a HPLC system.
as §1

T1 sequence (P08684 whole entry): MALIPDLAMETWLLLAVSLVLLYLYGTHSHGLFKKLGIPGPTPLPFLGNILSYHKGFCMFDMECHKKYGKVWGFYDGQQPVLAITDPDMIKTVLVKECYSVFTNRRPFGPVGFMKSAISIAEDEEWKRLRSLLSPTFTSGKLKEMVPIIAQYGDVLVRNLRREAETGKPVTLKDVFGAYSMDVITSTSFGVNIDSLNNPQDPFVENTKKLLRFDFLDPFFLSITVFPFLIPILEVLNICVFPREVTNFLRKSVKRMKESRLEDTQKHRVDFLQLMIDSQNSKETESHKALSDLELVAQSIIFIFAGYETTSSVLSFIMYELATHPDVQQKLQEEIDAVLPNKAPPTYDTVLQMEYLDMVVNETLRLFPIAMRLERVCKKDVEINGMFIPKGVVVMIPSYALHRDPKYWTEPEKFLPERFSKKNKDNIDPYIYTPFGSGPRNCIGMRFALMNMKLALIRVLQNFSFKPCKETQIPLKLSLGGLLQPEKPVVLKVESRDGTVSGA

COc1cccc2c1C(=O)c1c(O)c3c(c(O)c1C2=O)C[C@@](O)(C(=O)CO)C[C@@H]3O[C@H]1C[C@H](N2CCO[C@H](OC)C2)[C@H](O)[C@H](C)O1 [nemorubicin]
metabolism of nemorubicin by microsomes overexpressing single CYP isoenzymes (CYP3A4): Only microsomes from CYP3A4-overexpressing cells were able to metabolize nemorubicin | isoenzyme responsible for nemorubicin metabolism (antibody inhibition) (CYP3A4/5): only the CYP3A4 isoenzyme is responsible for the metabolism of nemorubicin
